From PMC11078746 (Nature, 2024)
“And” between values parts separate entries of the source, which are not always exact repeats. Equal entries are not always repeated. Where two headings read alike, the source gives them in different places. Blank lines part the entries; values can stand above or below the compound they belong to.

Columns and labels:
IM95 = test: CFA 10-14 day clonogenic assay; format: cell-based; conditions: Homo sapiens
CYP3A4 = CYP3A4 (Homo sapiens, UniProt P08684); test: CYP3A4 TDI; format: in vitro ADME
Sequence of CYP3A4 (P08684 whole entry, species assumed): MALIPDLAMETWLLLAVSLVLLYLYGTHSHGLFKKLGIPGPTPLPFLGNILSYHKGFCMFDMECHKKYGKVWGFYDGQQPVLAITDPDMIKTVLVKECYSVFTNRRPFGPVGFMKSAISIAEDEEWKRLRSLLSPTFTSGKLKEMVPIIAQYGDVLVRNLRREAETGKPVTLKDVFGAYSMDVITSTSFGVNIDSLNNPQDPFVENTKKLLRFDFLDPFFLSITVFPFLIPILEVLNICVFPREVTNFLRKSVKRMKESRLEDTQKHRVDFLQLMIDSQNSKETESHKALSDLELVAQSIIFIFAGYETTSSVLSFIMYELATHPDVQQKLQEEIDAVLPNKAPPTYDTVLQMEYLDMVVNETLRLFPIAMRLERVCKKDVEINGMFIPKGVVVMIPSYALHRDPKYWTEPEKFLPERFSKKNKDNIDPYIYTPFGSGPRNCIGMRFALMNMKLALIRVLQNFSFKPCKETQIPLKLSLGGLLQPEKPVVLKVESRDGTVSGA

CAL33 = test: 4 day proliferation assay (CellTiter-Glo); conditions: Homo sapiens, CAL-33, 96 h, read-out: 4 day assay GI50
SNUC4 [1] = test: CFA 10-14 day clonogenic assay; format: cell-based; conditions: Homo sapiens, SNU-C4
[2] = In vitro unbound fraction; format: in vitro ADME
SNUC4 [3] = test: 4 day proliferation assay (CellTiter-Glo); conditions: Homo sapiens, SNU-C4, 96 h, read-out: 4 day assay GI50
EN = test: 4 day proliferation assay (CellTiter-Glo); conditions: Homo sapiens, 96 h, read-out: 4 day assay GI50
LS411N [4] = test: CFA 10-14 day clonogenic assay; format: cell-based; conditions: Homo sapiens, LS-411N
LS411N [5] = test: 4 day proliferation assay (CellTiter-Glo)
CW2 = test: 4 day proliferation assay (CellTiter-Glo); conditions: Homo sapiens, CW-2, 96 h, read-out: 4 day assay GI50
SNU407 = test: CFA 10-14 day clonogenic assay; format: cell-based; conditions: Homo sapiens, SNU-407
COX1 = COX1 (Homo sapiens, UniProt P23219); test: Safety pharmacology panel
Sequence of COX1 (P23219 24-599): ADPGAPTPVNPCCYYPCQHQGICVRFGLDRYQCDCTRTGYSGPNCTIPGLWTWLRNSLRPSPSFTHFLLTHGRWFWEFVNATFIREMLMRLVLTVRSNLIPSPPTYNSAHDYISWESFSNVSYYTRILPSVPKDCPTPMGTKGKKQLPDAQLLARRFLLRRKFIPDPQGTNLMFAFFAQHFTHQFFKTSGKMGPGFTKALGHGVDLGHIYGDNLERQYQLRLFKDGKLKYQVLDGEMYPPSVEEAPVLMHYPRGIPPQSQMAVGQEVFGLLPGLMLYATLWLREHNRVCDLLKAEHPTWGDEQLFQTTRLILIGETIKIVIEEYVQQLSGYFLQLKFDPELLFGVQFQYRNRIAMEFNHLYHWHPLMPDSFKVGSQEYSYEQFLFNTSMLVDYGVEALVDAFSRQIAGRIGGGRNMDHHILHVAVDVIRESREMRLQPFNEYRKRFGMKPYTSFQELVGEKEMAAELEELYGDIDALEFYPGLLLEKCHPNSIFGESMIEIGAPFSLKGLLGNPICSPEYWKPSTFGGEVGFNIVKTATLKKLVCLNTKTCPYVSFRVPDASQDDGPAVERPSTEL

OC314 = test: CFA 10-14 day clonogenic assay; format: cell-based; conditions: Homo sapiens, OC-314
Mouse unbound fraction = format: in vitro ADME; conditions: blood
SW48 = test: 4 day proliferation assay (CellTiter-Glo); conditions: for GI50: Homo sapiens, SW48, 96 h
LS513 = test: 4 day proliferation assay (CellTiter-Glo); conditions: Homo sapiens, LS-513, 96 h, read-out: 4 day assay GI50
RKO = test: 4 day proliferation assay (CellTiter-Glo); conditions: Homo sapiens, 96 h, read-out: 4 day assay GI50
PXR = PXR (Homo sapiens, UniProt O75469); test: PXR activation; format: in vitro ADME
Sequence of PXR (O75469 whole entry, species assumed): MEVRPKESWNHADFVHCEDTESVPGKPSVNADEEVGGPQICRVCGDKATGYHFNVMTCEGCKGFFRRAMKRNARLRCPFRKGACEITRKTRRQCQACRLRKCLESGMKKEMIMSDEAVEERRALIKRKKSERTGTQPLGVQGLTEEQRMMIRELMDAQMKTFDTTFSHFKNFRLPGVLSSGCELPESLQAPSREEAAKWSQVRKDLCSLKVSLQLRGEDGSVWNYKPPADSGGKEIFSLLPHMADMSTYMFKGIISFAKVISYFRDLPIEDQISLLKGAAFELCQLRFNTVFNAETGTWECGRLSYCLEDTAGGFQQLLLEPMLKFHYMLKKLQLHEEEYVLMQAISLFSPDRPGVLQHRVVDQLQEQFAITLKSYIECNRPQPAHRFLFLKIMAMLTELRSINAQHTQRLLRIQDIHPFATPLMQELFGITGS

KM12 = test: CFA 10-14 day clonogenic assay; format: cell-based; conditions: Homo sapiens
LIM2405 = test: 4 day proliferation assay (CellTiter-Glo); conditions: Homo sapiens, 96 h, read-out: 4 day assay GI50
SNGM = test: 4 day proliferation assay (CellTiter-Glo); conditions: Homo sapiens, 96 h, read-out: 4 day assay GI50
SNUC2A = test: CFA 10-14 day clonogenic assay; format: cell-based; conditions: Homo sapiens
[6] = Compound 3 blood PK in SW48 tumour-bearing mice; format: in vivo, mouse
Experimental: All animal studies were conducted in accordance with ethics and procedures covered by permit BS-2275 and BS-1975 issued by the Kantonales Veterinäramt Basel-Stadt and in strict adherence to guidelines of the Eidgenössisches Tierschutzgesetz and the Eidgenössische Tierschutzverordnung, Switzerland. All animal studies were approved by the internal ethics committee. All animals had access to food and water ad libitum and were identified with transponders. They were housed in a specific-pathogen-free facility in IVC racks under a 12 h–12 h light–dark cycle. To establish cell-line-derived xenograft models, 6–7-week-old female athymic nude (Crl:NU(NCr)-Foxn1^nu) or SCID-BEIGE (CB17.Cg-PrkdcscidLystbg-J/Crl) mice from Charles River were engrafted subcutaneously with 5 million tumour cells in HBSS (H6648, Sigma-Aldrich). For SNU-407, Lovo, IM95, RL95.2, Ishikawa and IGROV-1, the cells were concentrated in 50% Matrigel (354234, Corning). Patient-derived xenografts were induced and expanded by transplantation as previously described. […]. For the efficacy experiment, mice were randomized into groups (n = 5–6) for a mean tumour size of 100–150 mm^3. […] Blood samples were collected on day 7 and 91. […]. Tumour responses are reported with the measures of tumour volumes from the treatment start. […]. Animals were randomized (n = 3) and tumour samples were collected at 0, 1, 4, 8 and 24 h on the first day and then collected 4 h after the last treatment on day 3, 8, 10, 14 (including a 24 h timepoint), 17 and 21. Tumours were excised, weighed, either frozen in liquid nitrogen and cryogenic dry pulverized with the CryoPrep system (model CP-02, Covaris) or processed to FFPE after fixation. […]. On day 12, blood samples were collected for PK analysis. On the last day (3 h after the last treatment), tumours were excised, weighed, frozen in liquid nitrogen and cryogenic dry pulverized for PD analysis. […]. […]

SMILES: CCc1c(N2CCN(C(=O)c3ncnc(C)c3O)CC2)c(=O)n2nc(C3=CCOCC3)nc2n1CC(=O)Nc1ccc(C(F)(F)F)cc1Cl [HRO761]
- GI50 (IM95): 255 nM
- CYP3A4 TDI (CYP3A4): No TDI
- GI50 (CAL33): ≥ 10000 nM
- GI50 (SNUC4 [1]): 35 nM
- fraction unbound [2]: 0.37
- GI50 (SNUC4 [3]): 145 nM
- GI50 (EN): ≥ 10000 nM
- GI50 (LS411N [4]): 30 nM
- GI50 (LS411N [5]; Homo sapiens, LS-411N, 96 h, read-out: 4 day assay GI50, LS411N): 147 nM
- GI50 (LS411N [5]; read-out: 4 day assay GI50, LS411N): 257 nM
- GI50 (CW2): 112 nM
- GI50 (SNU407): 25 nM
- Safety pharmacology panel: COX1 (COX1): 9 μM
- GI50 (OC314): 4630 nM
- fraction unbound (Mouse unbound fraction): 0.193
- GI50 (SW48; HRO761 alone): 100 nM
- GI50 (SW48; HRO761 dose response with 3.2 µM ATMi KU-55933): 200 nM
- GI50 (SW48; read-out: 4 day assay GI50, SW48): 58 nM
- unbound GI90 (SW48; SW48): 160 nM
- GI50 (LS513): ≥ 10000 nM
- GI50 (RKO): 2910 nM
- PXR activation (PXR): No PXR
- GI50 (KM12): 100 nM
- GI50 (LIM2405): 1530 nM
- GI50 (SNGM): ≥ 10000 nM
- GI50 (SNUC2A): 25 nM

- concentration at 4 h ([6]; 15mg/kg BID, 1 h, single mouse, listed as WRNi #4, read-out: Total blood concentration): 680 nM and 520 nM
- concentration at 4 h ([6]; 15mg/kg BID, 2 h, single mouse, listed as WRNi #4, read-out: Total blood concentration): 110 nM and 260 nM and 360 nM
- concentration at 4 h ([6]; 15mg/kg BID, 4 h, single mouse, listed as WRNi #4, read-out: Total blood concentration): 100 nM and 200 nM
- concentration at 4 h ([6]; 15mg/kg BID, 8 h, single mouse, listed as WRNi #4, read-out: Total blood concentration): 80 nM and 130 nM and 220 nM
- concentration at 4 h ([6]; 15mg/kg BID, last day of the efficacy experiment, 0.5 h post treatment, single mouse, listed as WRNi #4, read-out: Total blood concentration): 450 nM and 470 nM and 950 nM
- concentration at 4 h ([6]; 50mg/kg BID, 0.5 h, single mouse, listed as WRNi #4, read-out: Total blood concentration): 8660 nM and 6870 nM
- concentration at 4 h ([6]; 50mg/kg BID, 1 h, single mouse, listed as WRNi #4, read-out: Total blood concentration): 5090 nM and 4750 nM
- concentration at 4 h ([6]; 50mg/kg BID, 2 h, single mouse, listed as WRNi #4, read-out: Total blood concentration): 1600 nM and 2410 nM
- concentration at 4 h ([6]; 50mg/kg BID, 4 h, single mouse, listed as WRNi #4, read-out: Total blood concentration): 470 nM and 240 nM and 860 nM
- concentration at 4 h ([6]; 50mg/kg BID, 8 h, single mouse, listed as WRNi #4, read-out: Total blood concentration): 100 nM and 210 nM and 230 nM
- concentration at 4 h ([6]; 150mg/kg BID, 0.5 h, single mouse, listed as WRNi #4, read-out: Total blood concentration): 23940 nM and 28210 nM
- concentration at 4 h ([6]; 150mg/kg BID, 1 h, single mouse, listed as WRNi #4, read-out: Total blood concentration): 13050 nM and 11280 nM
- concentration at 4 h ([6]; 150mg/kg BID, 2 h, single mouse, listed as WRNi #4, read-out: Total blood concentration): 7350 nM and 7410 nM
- concentration at 4 h ([6]; 150mg/kg BID, 4 h, single mouse, listed as WRNi #4, read-out: Total blood concentration): 3220 nM and 720 nM and 1060 nM
- concentration at 4 h ([6]; 150mg/kg BID, 8 h, single mouse, listed as WRNi #4, read-out: Total blood concentration): 460 nM and 210 nM and 390 nM
- concentration at 0.5 h ([6]; female, mouse, whole blood, oral, 15 mg/kg, 15mg/kg BID, 0.5 h, read-out: Mean total blood concentration): 620 nM
- concentration at 1 h ([6]; female, mouse, whole blood, oral, 15 mg/kg, 15mg/kg BID, 1 h, read-out: Mean total blood concentration): 680 nM
- concentration at 1 h ([6]; female, mouse, whole blood, oral, 15 mg/kg, 15mg/kg BID, 1 h, single mouse, read-out: Total blood concentration): 840 nM
- concentration at 2 h ([6]; female, mouse, whole blood, oral, 15 mg/kg, 15mg/kg BID, 2 h, read-out: Mean total blood concentration): 240 nM
- concentration at 4 h ([6]; female, mouse, whole blood, oral, 15 mg/kg, 15mg/kg BID, 4 h, read-out: Mean total blood concentration): 130 nM
- concentration at 4 h ([6]; female, mouse, whole blood, oral, 15 mg/kg, 15mg/kg BID, 4 h, single mouse, read-out: Total blood concentration): 100 nM
- concentration at 8 h ([6]; female, mouse, whole blood, oral, 15 mg/kg, 15mg/kg BID, 8 h, read-out: Mean total blood concentration): 140 nM
- concentration at 0.5 h ([6]; female, mouse, whole blood, oral, 50 mg/kg, 50mg/kg BID, 0.5 h, read-out: Mean total blood concentration): 7340 nM
- concentration at 0.5 h ([6]; female, mouse, whole blood, oral, 50 mg/kg, 50mg/kg BID, 0.5 h, single mouse, read-out: Total blood concentration): 6500 nM
- concentration at 1 h ([6]; female, mouse, whole blood, oral, 50 mg/kg, 50mg/kg BID, 1 h, read-out: Mean total blood concentration): 4820 nM
- concentration at 1 h ([6]; female, mouse, whole blood, oral, 50 mg/kg, 50mg/kg BID, 1 h, single mouse, read-out: Total blood concentration): 4620 nM
- concentration at 2 h ([6]; female, mouse, whole blood, oral, 50 mg/kg, 50mg/kg BID, 2 h, read-out: Mean total blood concentration): 2060 nM
- concentration at 2 h ([6]; female, mouse, whole blood, oral, 50 mg/kg, 50mg/kg BID, 2 h, single mouse, read-out: Total blood concentration): 2180 nM
- concentration at 4 h ([6]; female, mouse, whole blood, oral, 50 mg/kg, 50mg/kg BID, 4 h, read-out: Mean total blood concentration): 520 nM
- concentration at 8 h ([6]; female, mouse, whole blood, oral, 50 mg/kg, 50mg/kg BID, 8 h, read-out: Mean total blood concentration): 180 nM
- concentration at 0.5 h ([6]; female, mouse, whole blood, oral, 150 mg/kg, 150mg/kg BID, 0.5 h, read-out: Mean total blood concentration): 22900 nM
- concentration at 0.5 h ([6]; female, mouse, whole blood, oral, 150 mg/kg, 150mg/kg BID, 0.5 h, single mouse, read-out: Total blood concentration): 16500 nM
- concentration at 1 h ([6]; female, mouse, whole blood, oral, 150 mg/kg, 150mg/kg BID, 1 h, read-out: Mean total blood concentration): 14700 nM
- concentration at 1 h ([6]; female, mouse, whole blood, oral, 150 mg/kg, 150mg/kg BID, 1 h, single mouse, read-out: Total blood concentration): 19700 nM
- concentration at 2 h ([6]; female, mouse, whole blood, oral, 150 mg/kg, 150mg/kg BID, 2 h, read-out: Mean total blood concentration): 8330 nM
- concentration at 2 h ([6]; female, mouse, whole blood, oral, 150 mg/kg, 150mg/kg BID, 2 h, single mouse, read-out: Total blood concentration): 10200 nM
- concentration at 4 h ([6]; female, mouse, whole blood, oral, 150 mg/kg, 150mg/kg BID, 4 h, read-out: Mean total blood concentration): 1670 nM
- concentration at 8 h ([6]; female, mouse, whole blood, oral, 150 mg/kg, 150mg/kg BID, 8 h, read-out: Mean total blood concentration): 350 nM
SMILES: CCc1c(N2CCN(C(=O)c3ncccc3O)CC2)c(=O)n2nc(C3=CCOCC3)nc2n1CC(=O)Nc1ccc(C(F)(F)F)cc1C [compound 3]
